# Measured values published in patent publication US11612599B2, “Glycosidase inhibitors” (Asceneuron SA, priority 2016, dated 2023).
# Biological target: Human O-GlcNAcase (His-Tagged hOGA) (Homo sapiens (Human), UniProt O60502)
# Experiment: Human O-GlcNAcase enzyme inhibition assay
# Format: biochemical
# Conditions: OGA enzyme inhibition assay; activity range classes defined in μM
# Procedure: Then, 20 nM of His-Tagged hOGA and 10 μM of FL-GlcNAc (Fluorescein mono-beta-D-(2-deoxy-2-N-acetyl) glucopyranoside; Marker Gene Technologies Inc, M1485) were added to the 384-well plate for a final volume of 20 μl.
# Chain of Human O-GlcNAcase (His-Tagged hOGA) (O60502 whole entry): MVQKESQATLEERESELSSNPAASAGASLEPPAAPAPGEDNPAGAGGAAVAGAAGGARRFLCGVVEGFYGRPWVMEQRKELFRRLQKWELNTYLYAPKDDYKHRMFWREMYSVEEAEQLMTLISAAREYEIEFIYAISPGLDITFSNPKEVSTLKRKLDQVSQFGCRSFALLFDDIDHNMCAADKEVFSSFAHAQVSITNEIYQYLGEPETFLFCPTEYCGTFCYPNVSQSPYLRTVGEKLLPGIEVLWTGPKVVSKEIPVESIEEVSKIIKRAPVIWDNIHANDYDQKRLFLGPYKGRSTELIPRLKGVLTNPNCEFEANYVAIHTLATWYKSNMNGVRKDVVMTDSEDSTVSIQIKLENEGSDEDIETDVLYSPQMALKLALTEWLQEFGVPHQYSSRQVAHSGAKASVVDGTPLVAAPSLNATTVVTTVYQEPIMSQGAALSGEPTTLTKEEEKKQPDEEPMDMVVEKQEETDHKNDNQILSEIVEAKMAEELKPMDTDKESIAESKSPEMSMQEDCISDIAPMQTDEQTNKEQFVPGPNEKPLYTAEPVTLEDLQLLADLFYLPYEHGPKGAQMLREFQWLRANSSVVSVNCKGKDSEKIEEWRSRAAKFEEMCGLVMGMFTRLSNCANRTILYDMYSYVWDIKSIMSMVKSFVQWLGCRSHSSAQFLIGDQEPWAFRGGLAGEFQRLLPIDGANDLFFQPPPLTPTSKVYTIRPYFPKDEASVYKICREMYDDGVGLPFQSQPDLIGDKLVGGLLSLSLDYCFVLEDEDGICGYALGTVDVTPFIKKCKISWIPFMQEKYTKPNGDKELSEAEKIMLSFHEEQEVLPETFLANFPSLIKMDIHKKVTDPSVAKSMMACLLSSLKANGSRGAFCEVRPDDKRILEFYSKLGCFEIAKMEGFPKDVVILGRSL
row,IC50 [µM],SMILES
1,< 0.05,"Cc1ncc2ccc(N3CCN(C(C)c4ccc5c(c4)OCC5)CC3)cn12 (racemic) [Example 1, 6-(4-(1-(2,3-dihydrobenzofuran-6-yl)ethyl)piperazin-1-yl)-3-methylimidazo[1,5-a]pyridine]"
2,< 0.05,"CC(c1ccc2c(c1)OCC2)N1CCN(c2ccc3c(c2)C(=O)NC3)CC1 (racemic) [Example 2, 6-(4-(1-(2,3-dihydrobenzofuran-6-yl)ethyl)piperazin-1-yl)isoindolin-1-one]"
3,< 0.05,"CC(c1ccc2c(c1)OCC2)N1CCN(c2cc3c(cn2)NC(=O)CO3)CC1 (racemic) [Example 3, 7-(4-(1-(2,3-dihydrobenzofuran-6-yl)ethyl)piperazin-1-yl)-2H-pyrido[4,3-b][1,4]oxazin-3(4H)-one]"
4,0.05 to 0.2,"CC(c1ccc2nccnc2c1)N1CCN(c2ccc3c(c2)C(=O)NC3)CC1 (racemic) [Example 4, 6-(4-(1-(quinoxalin-6-yl)ethyl)piperazin-1-yl)isoindolin-1-one]"
5,< 0.05,"CC(c1ccc2c(c1)OCC2)N1CCN(c2nc3c(s2)C(=O)NCC3)CC1 (racemic) [Example 12, 2-(4-(1-(2,3-dihydrobenzofuran-6-yl)ethyl)piperazin-1-yl)-6,7-dihydrothiazolo[5,4-c]pyridin-4(5H)-one]"

row,SMILES,IC50 [µM]
1,"C[C@H](c1ccc2c(c1)OCC2)N1CCN(c2nc3c(s2)CNCC3)CC1 (single isomer, unassigned) [Example 18]",1 to 10
